These are literature values, as cited in patent publication US11708377B2, “Analogues and derivatives of cephalotaxine and methods for making and using the compounds” (Oregon State University, priority 2019, dated 2023).

The conditions of data set [1]: background statement; lacks the ester sidechain of HHT.
The test system of a further data set is leukemia cells. Particulars: background statement, no figure given.

As to `COC1=C[C@]23CCCN2CCc2cc4c(cc2[C@@H]3[C@@H]1O)OCO4` [Cephalotaxine, (−)-Cephalotaxine], the biological activity entry in data set [1] is “biologically inactive”.

Consider `COC(=O)C[C@](O)(CCCC(C)(C)O)C(=O)O[C@@H]1C(OC)=C[C@]23CCCN2CCc2cc4c(cc2[C@H]13)OCO4` [HHT, (−)-Homoharringtonine], for which the “cytotoxicity against leukemia cells” value with leukemia cells is recorded as “nanomolar cytotoxicity”.
